Key:
DPP1 in HL-60 cells = DPP1 in HL-60 cells (Homo sapiens (Human), UniProt P53634); test: DPP1 cell single-point percent inhibition testing (HL-60 cells, H-Gly-Phe-AFC substrate); assay type: cell-based; conditions: read-out: DPP1 cell % inhibition @ 5 nM, 5 nM compound, 100 μM H-Gly-Phe-AFC, 60 min pre-incubation at 37° C.
Experimental: HL-60 cells (ATCC; Manassas, VA) were maintained in RPMI-1640 supplemented with 20% heat-inactivated FBS and 1× Antibiotic Antimycotic (Cytiva; Marlborough, MA). Media was changed every three to four days and cells were not allowed to exceed 1×10^6 cells per mL. Prior to assay, cells were collected by centrifugation at 500 rcf for 3 minutes, resuspended in RPMI (with no additional supplements) and counted. Cells were diluted in RPMI to a concentration of 5×10^5 live cells per mL and transferred to black 96-well plates for assay, 60 μL per well. Test articles were diluted to 25 nM in RPMI plus 0.5% DMSO, and 20 μL was added to each assay well. Compound was allowed to pre-incubate with cells with gentle shaking at 100 rpm for 60 minutes at 37° C. in a cell culture incubator maintained at 5% CO2, after which 20 μL of 500 μM H-Gly-Phe-AFC cell-permeable substrate (MP Biomedicals; Solon, OH) in RPMI was added to each well, giving final compound concentration of 5 nM, a final substrate concentration of 100 μM and a final DMSO concentration of 0.1%. Plates were returned to the incubator with shaking at 100 rpm for 30 minutes, after which fluorescence was measured at Excitation/Emission 400/505 nm. Percent Inhibition was calculated from RFU values by first subtracting background values (wells in which RPMI was substituted for cells) from each well, and then subtracting background-subtracted RFU derived from wells that received a final concentration of 10 μM brensocatib. This value represents the non-specific substrate cleavage from the HL-60 cells, and the remaining RFU should theoretically be solely the contribution of DPP1 enzyme activity. The final percent inhibition value was calculated for each test article based on remaining RFU compared to RFU from wells that received only vehicle control.

human DPP1 enzyme = human DPP1 enzyme (Homo sapiens (Human), UniProt P53634); test: Human DPP1 enzyme single-point percent inhibition testing (HL-60 lysate, H-Gly-Arg-AMC substrate); assay type: biochemical; conditions: read-out: human DPP1 enzyme % inhibition @ 10 nM, 10 nM compound, 400 μM H-Gly-Arg-AMC, 10 min pre-incubation at 37° C.
Chain of human DPP1 enzyme (P53634 25-134): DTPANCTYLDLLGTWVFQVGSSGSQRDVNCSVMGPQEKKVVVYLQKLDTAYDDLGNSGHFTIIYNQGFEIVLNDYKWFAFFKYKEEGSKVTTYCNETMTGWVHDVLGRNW
Chain of human DPP1 enzyme (P53634 231-394): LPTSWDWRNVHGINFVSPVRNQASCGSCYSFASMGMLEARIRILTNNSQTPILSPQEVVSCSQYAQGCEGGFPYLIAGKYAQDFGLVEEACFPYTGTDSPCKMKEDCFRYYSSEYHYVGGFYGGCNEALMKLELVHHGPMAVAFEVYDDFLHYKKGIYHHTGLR
Chain of human DPP1 enzyme (P53634 395-463): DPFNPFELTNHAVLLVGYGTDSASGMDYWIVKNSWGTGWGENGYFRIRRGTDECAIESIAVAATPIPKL
Experimental: A crude lysate of HL-60 cells (ATCC; Manassas, VA) was used as a source of human DPP1 enzyme in the assay. Lysate was prepared in 1% Triton X-100 in PBS at a concentration of 20,000 live cells per […] of lysis buffer and was centrifuged at 16,000 rcf for 10 minutes at 4° C., after which supernatant was collected and flash-frozen in liquid nitrogen. Test articles were applied to human DPP1 enzyme in Assay Buffer (25 mM MES pH 6.0, 50 mM NaCl, 5 mM DTT) in a total reaction volume of 125 μL. 25 μL of compound diluted to 50 nM in Assay Buffer plus 5% DMSO was first added to 50 μL of HL-60 lysate diluted to contain a DPP1 enzyme concentration of roughly 1 ng/μL and allowed to pre-incubate for 10 minutes at 37° C. after which 50 μL of 1000 μM H-Gly-Arg-AMC substrate (Bachem; St. Torrance, CA) was added, giving final compound concentration of 10 nM, a final substrate concentration of 400 μM and a final DMSO concentration of 1%. Substrate cleavage was measured for 90 minutes at 37° C., with fluorescence at Excitation/Emission 350/450 nm measured every 5 minutes. DPP1 concentration was interpolated based on its activity relative to a standard curve of activated human recombinant DPP1 enzyme. Percent inhibition at 10 nM was calculated for each test article based on remaining DPP1 activity compared to enzyme activity in wells that received only vehicle control.

Chain of DPP1 in HL-60 cells (P53634 25-134): as the sequence (P53634 25-134) above
Chain of DPP1 in HL-60 cells (P53634 231-394): as the sequence (P53634 231-394) above
Chain of DPP1 in HL-60 cells (P53634 395-463): as the sequence (P53634 395-463) above

SMILES	inhibition at 0.005 µM (DPP1 in HL-60 cells)	inhibition at 0.01 µM (human DPP1 enzyme)
CN(C)C[C@](C)(O)C(=O)N[C@H](C#N)Cc1ccc(-c2ccc3c(c2)C2(CC3)CCN(C)CC2)cc1 [Compound 384]	≤ 76.5%	≥ 66.7%
CO[C@@H](CN(C)C)C(=O)N[C@H](C#N)Cc1ccc(-c2cc3c(C)nc(C)cn3c2)cc1 [Compound 303]	≤ 76.5%	≤ 40%
CO[C@@H](CN(C)C)C(=O)N[C@H](C#N)Cc1ccc(-c2ccc3nnn(C)c3c2)cc1 [Compound 329]	≤ 76.5%	≤ 40%
CO[C@@H](CN(C)C)C(=O)N[C@H](C#N)Cc1ccc(-c2cnc3c(n2)CCCC3)cc1 [Compound 330]	≤ 76.5%	≤ 40%
CN(C)CCn1c(=O)oc2ccc(-c3ccc(C[C@@H](C#N)NC(=O)[C@@](C)(O)CN(C)C)c(F)c3)cc21 [Compound 399]	≥ 93.9%	≥ 66.7%
CN(C)C[C@H](O)C(=O)N[C@H](C#N)Cc1ccc(-c2cnc3c(n2)CCCC3)cc1 [Compound 372]	≤ 76.5%	≤ 40%
CO[C@@H](CN(C)C)C(=O)N[C@H](C#N)Cc1cc2c(cc1F)-c1ccc(C#N)cc1CO2 [Compound 296]	≤ 76.5%	≤ 40%
CN(C)C[C@H](O)C(=O)N[C@H](C#N)Cc1ccc(-c2ccc3oc(=O)n(CCN4CCOCC4)c3c2)cc1F [Compound 364]	≤ 76.5%	40 to 66.7%
CO[C@@H](CN(C)C)C(=O)NC(C#N)Cc1cc2c(cc1F)-c1cc3c(cc1CO2)oc(=O)n3C (stereo partly drawn) [Compound 297]	≤ 76.5%	≤ 40%
CN(C)C[C@](C)(O)C(=O)N[C@H](C#N)Cc1cc2c(cc1F)-c1ccc(F)cc1CO2 [Compound 420]	≤ 76.5%	≤ 40%
CN(C)C[C@H](O)C(=O)N[C@H](C#N)Cc1ccc(-c2ccc(CN3CCN(C)CC3)cc2)cc1 [Compound 352]	≤ 76.5%	≤ 40%
CN(C)C[C@](C)(O)C(=O)N[C@H](C#N)Cc1ccc(-c2ccc3c(c2)C2(CN(C)C2)OC3=O)cc1F [Compound 401]	≥ 93.9%	≥ 66.7%
CN(C)C[C@](C)(O)C(=O)N[C@H](C#N)Cc1ccc(-c2ccc3c(c2)C2(CC3)CCN(C)CC2)cc1F [Compound 397]	≤ 76.5%	≥ 66.7%
CN(C)C[C@H](O)C(=O)N[C@H](C#N)Cc1ccc(-c2ccc3cnn(C)c3c2)cc1 [Compound 370]	≤ 76.5%	≤ 40%
CN(C)C[C@H](O)C(=O)N[C@H](C#N)Cc1ccc(-c2ccc3nnn(C)c3c2)cc1 [Compound 371]	≤ 76.5%	≤ 40%
CN(C)C[C@H](O)C(=O)N[C@H](C#N)Cc1cc2c(cc1F)-c1ccc(F)cc1CO2 [Compound 378]	≤ 76.5%	≤ 40%
Cc1cn2cc(-c3ccc(C[C@@H](C#N)NC(=O)[C@@H](O)CN(C)C)cc3)cc2c(C)n1 [Compound 345]	≤ 76.5%	≤ 40%
CO[C@@H](CN(C)C)C(=O)N[C@H](C#N)Cc1ccc(-c2ccc(CN3CCN(C)CC3)cc2)cc1 [Compound 310]	76.5 to 93.9%	≤ 40%
CO[C@@H](CN(C)C)C(=O)NC(C#N)Cc1cc2c(cc1F)-c1cc(C#N)ccc1CO2 (stereo partly drawn) [Compound 298]	≤ 76.5%	≤ 40%
CN(C)C[C@H](O)C(=O)N[C@H](C#N)Cc1ccc(-c2ccc3c(c2)C2(CCN(C4COC4)CC2)OC3)cc1F [Compound 363]	≤ 76.5%	40 to 66.7%

SMILES	inhibition at 0.005 µM (DPP1 in HL-60 cells)	inhibition at 0.01 µM (human DPP1 enzyme)
CN(C)C[C@](C)(O)C(=O)N[C@H](C#N)Cc1ccc(-c2ccc3c(c2)C2(CCN(C4COC4)CC2)OC3)cc1 [Compound 392]	≤ 76.5%	≥ 66.7%
CN(C)C[C@](C)(O)C(=O)N[C@H](C#N)Cc1ccc(-c2ccc3cnn(C4CCN(C)CC4)c3c2)cc1F [Compound 404]	≤ 76.5%	≥ 66.7%
CN(C)C[C@H](O)C(=O)N[C@H](C#N)Cc1ccc(-c2ccc(CN3CCN(C)CC3)cc2)cc1F [Compound 365]	≤ 76.5%	≤ 40%
CCN1C(=O)Cc2ccc(-c3ccc(C[C@@H](C#N)NC(=O)[C@@H](O)CN(C)C)c(F)c3)cc21 [Compound 360]	76.5 to 93.9%	40 to 66.7%
CN(C)C[C@H](O)C(=O)N[C@H](C#N)Cc1ccc(-c2ccc3cnn(C4CCN(C)CC4)c3c2)cc1 [Compound 349]	≤ 76.5%	40 to 66.7%
COCCN(C)CCn1c(=O)oc2ccc(-c3ccc(C[C@@H](C#N)NC(=O)[C@@](C)(O)CN(C)C)c(F)c3)cc21 [Compound 410]	≥ 93.9%	≥ 66.7%
CO[C@@H](CN(C)C)C(=O)N[C@H](C#N)Cc1ccc(-c2ccc3oc(=O)n(CCN(C)C)c3c2)cc1 [Compound 302]	≤ 76.5%	40 to 66.7%
CN(C)C[C@](C)(O)C(=O)NC(C#N)Cc1cc2c(cc1F)-c1ccc3oc(=O)n(C)c3c1CO2 (stereo partly drawn) [Compound 383]	≤ 76.5%	≤ 40%
CO[C@@H](CN(C)C)C(=O)N[C@H](C#N)Cc1ccc(-c2ccc3c(c2)C2(CC3)CCN(C)CC2)cc1 [Compound 300]	≤ 76.5%	40 to 66.7%
CO[C@@H](CN(C)C)C(=O)N[C@H](C#N)Cc1ccc(-c2ccc3c(c2)C2(CCN(C4COC4)CC2)OC3)cc1F [Compound 321]	≤ 76.5%	40 to 66.7%
CN(C)C[C@H](O)C(=O)N[C@H](C#N)Cc1ccc(-c2ccc3c(c2)C2(CN(C)C2)OC3=O)cc1 [Compound 346]	≤ 76.5%	40 to 66.7%
CO[C@@H](CN(C)C)C(=O)N[C@H](C#N)Cc1ccc(-c2ccc3c(n2)CCCN3)cc1F [Compound 325]	≤ 76.5%	≤ 40%
CN(C)CCn1c(=O)oc2ccc(-c3ccc(C[C@@H](C#N)NC(=O)[C@@](C)(O)CN(C)C)cc3)cc21 [Compound 386]	76.5 to 93.9%	≥ 66.7%
CN(C)C[C@H](O)C(=O)N[C@H](C#N)Cc1ccc(-c2ccc3cnn(C4CCN(C)CC4)c3c2)cc1F [Compound 362]	≤ 76.5%	≥ 66.7%
CN(C)C[C@](C)(O)C(=O)N[C@H](C#N)Cc1ccc(-c2ccc3oc(=O)n(CCN4CCOCC4)c3c2)cc1 [Compound 393]	≤ 76.5%	40 to 66.7%
CO[C@@H](CN(C)C)C(=O)N[C@H](C#N)Cc1ccc(-c2ccc3c(c2)C2(CN(C)C2)OC3=O)cc1 [Compound 304]	≤ 76.5%	≤ 40%
CN(C)C[C@H](O)C(=O)N[C@H](C#N)Cc1ccc(-c2ccc3c(c2)C2(CC3)CCN(C)CC2)cc1 [Compound 342]	≤ 76.5%	40 to 66.7%
CN(C)C[C@](C)(O)C(=O)N[C@H](C#N)Cc1ccc(-c2ccc3nnn(C)c3c2)cc1F [Compound 417]	76.5 to 93.9%	≥ 66.7%
CN(C)C[C@](C)(O)C(=O)N[C@H](C#N)Cc1ccc(-c2ccc3c(c2)C2(CCN(C)C2)OC3=O)cc1F (stereo partly drawn) [Compound 403]	76.5 to 93.9%	≥ 66.7%

From patent US20260008758A1, “LINEAR DIPEPTIDYL PEPTIDASE 1 INHIBITORS AND USES THEREOF” (Insmed Incorporated, priority 2024, published 2026)
